In publication PMC4526345 (Biochemistry, 2015):

Columns and labels:
Mycoplana ramosa APAH = Mycoplana ramosa APAH (Mycoplana ramosa, UniProt Q48935); experiment: APAH inhibition, fluorimetric Fluor-de-Lys assay; format: biochemical; conditions: also evaluated after 30 and 60 min incubation times
HDAC8 [1] = biological target: T1, HDAC8 (Homo sapiens, UniProt Q9BY41); experiment: Deacetylation of N^8-acetylspermidine by HDAC8; format: biochemical; conditions: overnight incubation with HDAC8; data not shown
T1 sequence (Q9BY41 1-377): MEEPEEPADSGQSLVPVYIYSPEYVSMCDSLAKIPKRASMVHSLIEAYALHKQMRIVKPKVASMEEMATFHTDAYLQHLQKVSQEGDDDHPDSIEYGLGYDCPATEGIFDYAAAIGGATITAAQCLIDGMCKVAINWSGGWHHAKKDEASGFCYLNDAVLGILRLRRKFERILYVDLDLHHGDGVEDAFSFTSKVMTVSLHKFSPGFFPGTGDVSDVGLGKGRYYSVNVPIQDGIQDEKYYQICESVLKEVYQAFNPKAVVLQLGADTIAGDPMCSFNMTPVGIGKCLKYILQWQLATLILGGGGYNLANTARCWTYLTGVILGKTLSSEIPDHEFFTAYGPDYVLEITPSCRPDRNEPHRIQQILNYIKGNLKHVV

HDAC8 [2] = conditions: read-out: IC50 HDAC8; cited from earlier work

Chain of Mycoplana ramosa APAH (Q48935 whole entry): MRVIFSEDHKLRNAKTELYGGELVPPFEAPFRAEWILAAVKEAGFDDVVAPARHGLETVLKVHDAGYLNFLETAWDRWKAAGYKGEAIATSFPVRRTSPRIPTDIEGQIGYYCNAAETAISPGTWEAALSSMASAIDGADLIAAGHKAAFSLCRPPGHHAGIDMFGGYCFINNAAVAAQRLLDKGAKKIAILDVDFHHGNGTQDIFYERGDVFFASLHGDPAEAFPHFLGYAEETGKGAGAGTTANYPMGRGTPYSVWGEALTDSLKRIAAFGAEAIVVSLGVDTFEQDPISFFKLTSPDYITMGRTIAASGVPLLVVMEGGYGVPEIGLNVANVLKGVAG

Cl.NCCCCCCC(=O)NO [Compound 6, 7-Amino-N-hydroxyheptanamide hydrochloride salt]
time-dependent inhibition of APAH (Mycoplana ramosa APAH): not observed

CC(=O)NCCCCNCCCN [N^8-acetylspermidine]
spermidine product formed by HDAC8 (HDAC8 [1]): does not yield any measurable spermidine product

largazole thiol
IC50 (HDAC8 [2]): 102 nM
